From patent US20190307754A1, “PDE9 INHIBITORS FOR TREATMENT OF PERIPHERAL DISEASES” (IMARA, INC., priority 2016, published 2019)

What was measured:
PDE1 = PDE1 inhibition assay; type: biochemical
Experimental: Reactions were initiated by addition of the cyclic nucleotide substrate, and reactions were allowed to proceed for 1 h at room temperature before being terminated through mixing with 20 μL (0.2 mg) yttrium silicate SPA beads (PerkinElmer).

[1] = Plasma, brain and eye exposure in C57Bl/6J mice; type: in vivo; details: for concentration at 30 min: male, C57Bl/6J, mouse, plasma, oral, gavage, Day 5, 30 minutes after dosing
Experimental: The exposure of both compounds was also evaluated in the plasma, brain, and eye. […] During the treatment period all animals were assessed for contextual fear conditioning and a subset of 7 animals per group was evaluated for locomotor activity. On Day 5, plasma, brain, and eye tissue were collected 30 minutes after dosing from 3 animals per treated group to measure concentrations of test item.

[2] = Plasma protein binding, dog; type: in vitro ADME; details: read-out: mean plasma fraction bound (converted)
[3] = Plasma protein binding, humans; type: in vitro ADME; details: human, read-out: mean plasma fraction bound (converted)
[4] = Plasma protein binding, mouse; type: in vitro ADME; details: read-out: mean plasma fraction bound (converted)
[5] = tested on: CD34+ derived red blood cells from SCD subjects; details: 10 μM Compound P3.1, 5 days
[6] = Chromosome aberration study; type: cell-based
Excerpt: The genotoxicity evaluation of Compound P3.1 consisted of a bacterial reverse mutation assay, a chromosome aberration study, and a in vivo rat micronucleus study. Compound P3.1 was negative in all 3 assays.

[7] = tested on: 7 key CYP enzyme isoforms; assay: CYP enzyme inhibition in human liver microsomes; details: up through 100 μM
[8] = tested on: Berkeley sickle cell transgenic mice; assay: HbF positive and sickled red blood cells in Berkeley sickle cell transgenic mice; type: in vivo; details: 30 mg/kg/day Compound P3.1 or 100 mg/kg/day HU, gavage, 30 days
Experimental: This study assessed the effects of chronic dosing (30 day) of Compound P3.1 and HU on HbF and cell sickling in a mouse model of sickle cell disease. Berkeley sickle cell transgenic mice (Hbatm1PazHbbtm1Tow Tg(HBA-HBBs)41Paz/J) were divided into groups of 7 to 8 animals and were dosed once daily, by gavage, for 30 days with either vehicle (PEG:water), 30 mg/kg/day of Compound P3.1, or 100 mg/kg/day of HU. This mouse genotype mimics the genetic, hematologic and histopathologic features that are found in humans afflicted with sickle cell anemia, including irreversibly sickled RBCs, anemia and multi-organ pathology. Blood was collected from treated animals on Day 30 for limited routine hematology as well as derivation of the percent of sickled and HbF positive RBCs and total bilirubin. At termination, the spleen was removed and weighed.

Han Wistar Rats = assay: Neurofunctional study in Han Wistar rats; type: in vivo, rat
Experimental: (§1) The safety pharmacology assessment of Compound P3.1 included an in vitro hERG assay, neurofunctional and respiratory studies in rats, and a cardiovascular study in beagle dogs.
Single oral doses of 250, 500, and 1000 mg/kg Compound P3.1 in Han Wistar Rats had no effect on clinical observations, home cage observations, handheld observations, or body temperatures.

rat = assay: in vivo; type: in vivo
Excerpt: as §1
(§2) The death was considered test article related. […]

in vivo = type: in vivo; details: rat, in vivo, 1000 mg/kg; read-out: plasma exposure (AUC0-24)
Excerpt: as §1, §2

[9] = tested on: K562 erythroleukemic cells; assay: HbF in cultured K562 cells; type: cell-based; details: 3 days
Experimental: K562 cells were cultured at 37° C. in IMDM® to which the required concentrations of test items or DMSO (negative control) had been added. Plated cells were maintained at 37° C. for 3 days at the end of which the presence of HbF within cells was detected by flow cytometry.

[10] = tested on: K562 erythroleukemic cells; assay: cGMP in cultured K562 cells; type: cell-based; details: 16 hours
Experimental: Hydroxyurea was included as a comparator as it is currently the only FDA approved treatment for this disease (Charache et al., N Engl J Med., 332(20):1317-22. (1995)). One of the proposed mechanisms of action of HU in SCD is that it may generate NO and modulation of intracellular levels of the NO second messenger, cGMP, may represent an effective and cell-specific approach for amplifying intracellular NO-dependent signaling.
K562 cells were cultured at 37° C. in IMDM® to which the required concentrations of test items or dimethyl sulfoxide (DMSO; negative Control) had been added. Plated cells were maintained at 37° C. for 16 hours at the end of which the amount of cGMP was detected by enzyme immunoassay.

[11] = Blood Brain Barrier penetration (brain-to-plasma distribution); type: in vivo; details: male CD mice, 10 mg/kg subcutaneous
Experimental: Male CD mice (20-24 g) were housed pair-wise with free access to food and water for an acclimatization period of 3-7 days before initiation of experiments. Prior to dosing the animals were fasted overnight. During testing, mice were kept in individual cages. The brain-to-plasma distribution was assessed 30 minutes and 2 hours after subcutaneous administration of the test compound at a dose of 10 mg/kg (n=3 at each time point). The dose volume was 10 ml/kg using appropriate vehicle to solubilize each test compound. At the time of sampling, animals were anesthetized with isoflurane and a systemic blood sample collected by cardiac puncture into vacutainers containing sodium heparin as anti-coagulant. The blood was centrifuged at 3500 rpm for 10 minutes at 4° C. to obtain plasma. Following decapitation, brains were dissected out and transferred to pre-weighed vessels followed by tissue weights determination. Plasma and brains were stored at −80° C. until quantitative bioanalysis by LC-MS/MS. Results are expressed as ng/ml for plasma and ng/g for brain samples.

CYP2B6 = assay: CYP induction in human hepatocytes, CYP2B6

Q: For C[C@@H]1CN(Cc2ncccn2)C[C@H]1c1cn2c(C3CCOCC3)ncc2c(=O)[nH]1 (single isomer, unassigned) [Compound P3.1], which IC50 (PDE1) is on record?
A: 3 µM

Q: And the “eye tissue level relative to AF27873” value ([1]; 10 and 30 mg/kg/day)?
A: 3 fold lower

Q: What about the concentration at 30 min ([1]; 10 mg/kg/day) of the same molecule?
A: 3.84 µM

Q: What about the concentration at 30 min ([1]; 30 mg/kg/day) of the same molecule?
A: 9.91 µM

Q: What about the “plasma to brain ratio” value ([1]; repeated administration) of the same molecule?
A: approximately 14

Q: What about the fraction unbound [2] of the same molecule?
A: 0.771

Q: And the fraction unbound [3]?
A: 0.686

Q: What about the fraction unbound [4] of the same molecule?
A: 0.767

Q: And the “amount of HbF within cells (mean MFI)” value [5]?
A: 10,840

Q: What about the “mean MFI of HbF relative to controls” value [5] of the same molecule?
A: 145%

Q: What about the “percentage of HbF positive CD36+ cells (mean)” value ([5]; 5 SCD subjects) of the same molecule?
A: 24.6%

Q: What about the “genotoxicity, chromosome aberration study” value [6] of the same molecule?
A: negative

Q: What about the “direct inhibition of 7 key CYP enzyme isoforms” value [7] of the same molecule?
A: no potential for direct inhibition

Q: What about the “RBC count, hemoglobin concentration or hematocrit” value [8] of the same molecule?
A: not associated with any apparent alterations

Q: And the neutrophil levels [8]?
A: reduced neutrophil levels

Q: What about the spleen weight [8] of the same molecule?
A: statistically significant decreases

Q: And the total bilirubin [8]?
A: statistically significant decreases

Q: And the total leucocyte count [8]?
A: statistically significant decreases

Q: And the “percentage of HbF positive RBCs” value ([8]; vs controls)?
A: increases in the percentage of HbF positive RBCs

Q: And the “percentage of sickled RBCs” value ([8]; vs controls)?
A: statistically significant decreases in the percentage of sickled RBCs

Q: And the adverse finding (Han Wistar Rats; >500 mg/kg, 0.5 and 24 hours post dosing)?
A: increased incidence of no visible-approach response

Q: What about the “non-adverse findings at 250 mg/kg” value (Han Wistar Rats; single oral 250 mg/kg) of the same molecule?
A: transient decrease in sensory response (approach response)

Q: What about the “non-adverse findings at 500 and 1000 mg/kg” value (Han Wistar Rats; single oral 500 and 1000 mg/kg) of the same molecule?
A: decreases in body weight/weight gain, motor activity (number of rears), and sensory response (tail pinch response)

Q: What about the “clinical, home cage, handheld observations, body temperatures” value (Han Wistar Rats; single oral doses of 250, 500, and 1000 mg/kg) of the same molecule?
A: no effect

Q: What about the mortality (rat; 1000 mg/kg, approximately 4.8 hours after dosing) of the same molecule?
A: One male rat was found dead

Q: And the “exposure relative to anticipated efficacious dose” value (rat; rat, in vivo)?
A: approximately 48 fold

Q: And the respiratory functions (rat; rat, in vivo, po, 1000 mg/kg)?
A: transient increases in respiratory rate and tidal volume

Q: What about the AUC(0-t) (in vivo) of the same molecule?
A: > 500 µg·h/mL

Q: What about the HbF positive cells ([9]; 1 μM) of the same molecule?
A: 68.7%

Q: What about the HbF positive cells ([9]; 3 μM) of the same molecule?
A: 75.6%

Q: And the HbF positive cells ([9]; 10 μM)?
A: 85.6%

Q: And the “cGMP concentration at 1 μM compared with 100 μM HU” value ([10]; 1 μM)?
A: approximately the same value elicited by 100 μM HU

Q: What about the cGMP level ([10]; 10 μM) of the same molecule?
A: 12.61 pg/mg

Q: And the “effect on cGMP levels” value [10]?
A: dose-dependent and statistically significant increases in cGMP levels

Q: What about the “Plasma concentration after 30 minutes” value ([11]; 30 min) of the same molecule?
A: 30 min.: 1620 ng/mL

Q: What about the “Plasma concentration after 120 minutes” value ([11]; 120 min) of the same molecule?
A: 120 min.: 226 ng/mL

Q: What about the Kp at 0.5 h ([11]; mouse, brain, sc, 30 min, read-out: Brain/Plasma ratio after 30 minutes) of the same molecule?
A: 0.04

Q: What about the Kp at 2 h ([11]; mouse, brain/plasma, sc, 120 min, read-out: Brain/Plasma ratio after 120 minutes) of the same molecule?
A: 0.03

Q: And the “induction of CYP2B6” value (CYP2B6)?
A: no potential for induction
